A word on the GI50: it is the concentration giving 50% growth inhibition.

Data on 12 compounds can be found in ChEMBL document CHEMBL1201862, “PubChem BioAssay data set” (2004).

Some test systems named below: NCI/ADR-RES; UACC-257; NCI-H522; HCC 2998; SK-OV-3; UO-31; MCF7; K562; HOP-62; COLO 205; DU-145; HL-60; IGROV-1; TK-10; OVCAR-4; RXF 393; RPMI-8226; SK-MEL-2; HOP-92; MDA-MB-435.
Experiment in all cases: DTP human tumour cell line panel, 48 h

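Five concentrations, 48 hours, 96-well plates. GI50 is the concentration that inhibits growth by half.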 Calls of active or inactive are those of the source. No stated cut-off is given here; in the data, active = GI50 up to about 1.1 µM and inactive = higher.

In the case of `O=[N+]([O-])c1ccc2c(c1)C(N1CCN(CCO)CC1)Cc1ccc(F)cc1S2` (stereo not given), the GI50 is 10.3 µM (inactive) in the assay with NCI/ADR-RES; 2.57 µM (inactive) with UACC-257; 3.48 µM (inactive) in the assay on NCI-H522; 2.58 µM (inactive) with HCC 2998; 17.3 µM (inactive) in the assay on SK-OV-3; 4.39 µM (inactive) with UO-31. Moreover, the GI50 is 10.1 µM (inactive) in the assay on MCF7; 2.29 µM (inactive) with K562; 17.1 µM (inactive) in the assay with HOP-62; 5.48 µM (inactive) in the assay with COLO 205; 14.8 µM (inactive) with DU-145; 5.02 µM (inactive) in the assay on HL-60. The GI50 in the assay with IGROV-1 is 3.85 µM (inactive); in the assay on TK-10, 13.7 µM (inactive); in the assay on OVCAR-4, 12.4 µM (inactive); with RXF 393, < 0.01 µM (active).
On to `O=C(/C=C(\O)C(=O)O)/C=C(\O)c1ccccc1Cl`, for which the GI50 in the assay with UACC-257, in the assay on NCI-H522, in the assay with HCC 2998, in the assay with SK-OV-3, in the assay on RPMI-8226 and in the assay with UO-31 was > 100 µM (inactive) each time. Further, the GI50 in the assay on SK-MEL-2, in the assay with K562, in the assay with HOP-62, in the assay on COLO 205, with HL-60 and in the assay on IGROV-1 was > 100 µM (inactive) each time. In addition, the GI50 in the assay on HOP-92, in the assay on TK-10, with OVCAR-4 and in the assay with RXF 393 was > 100 µM (inactive) each time.
For the compound `CCC[S+]([O-])c1nc(COC(=O)NC)c(COC(=O)NC)n1C` (stereo not given), the GI50 in the assay on NCI/ADR-RES, with UACC-257, in the assay with NCI-H522, in the assay on HCC 2998, in the assay with SK-OV-3 and with RPMI-8226 was > 100 µM (inactive) throughout. Moreover, the GI50 in the assay on UO-31, in the assay with SK-MEL-2, in the assay on MCF7, in the assay with K562, with HOP-62 and with COLO 205 was > 100 µM (inactive) in each case. For the same compound, the GI50 in the assay with HL-60, in the assay with IGROV-1, in the assay on HOP-92, in the assay with OVCAR-4 and in the assay with RXF 393 was > 100 µM (inactive) in each case.
Consider `CCOC(=O)CCC1(C(=O)OCC)CCCC1=O` (stereo not given), for which the GI50 with UACC-257 is > 100 µM (inactive); in the assay on NCI-H522 it was > 100 µM (inactive); in the assay on HCC 2998 it was > 100 µM (inactive); with SK-OV-3 it was > 100 µM (inactive); in the assay with RPMI-8226, 34.4 µM (inactive); in the assay on UO-31 it was > 100 µM (inactive). The GI50 in the assay on SK-MEL-2, in the assay with K562, with HOP-62, in the assay with COLO 205, in the assay with HL-60 and with IGROV-1 was > 100 µM (inactive) each time. Further, the GI50 with HOP-92, with TK-10, in the assay with OVCAR-4 and in the assay with RXF 393 was > 100 µM (inactive) throughout.
Consider `N#Cc1nc(C2SCCCS2)oc1N`, for which the GI50 in the assay on UACC-257 is > 100 µM (inactive); with SK-OV-3 it was > 100 µM (inactive); in the assay with RPMI-8226, 95.7 µM (inactive); in the assay on SK-MEL-2, > 100 µM (inactive); in the assay on MCF7 it was > 100 µM (inactive); in the assay with K562, > 100 µM (inactive). For the same compound, the GI50 with HOP-62, in the assay with DU-145, with HL-60, in the assay on IGROV-1, in the assay with HOP-92 and with MDA-MB-435 was > 100 µM (inactive) throughout. The GI50 in the assay with TK-10 and with OVCAR-4 was > 100 µM (inactive) throughout.
As to `CC1=NN(c2nc(N)nc(NS(=O)(=O)c3cc(C)c(Cl)cc3S)n2)C(C)(C)C1`, the GI50 in the assay with NCI/ADR-RES, with UACC-257, in the assay with NCI-H522, with HCC 2998, with SK-OV-3 and in the assay with RPMI-8226 was > 10 µM (inactive) throughout. In addition, the GI50 in the assay on UO-31, in the assay on SK-MEL-2, with MCF7, in the assay on K562, with HOP-62 and in the assay on COLO 205 was > 10 µM (inactive) throughout. Further, the GI50 with DU-145, in the assay on HL-60, with IGROV-1, with HOP-92, in the assay on TK-10 and in the assay on OVCAR-4 was > 10 µM (inactive) in each case. In addition, in the assay on RXF 393, the GI50 was > 10 µM (inactive).
On to `NN=C1/C(=C\c2ccccc2)CCC/C1=C/c1ccccc1`, for which the GI50 with UACC-257 was 30.8 µM (inactive); in the assay on NCI-H522, 15.4 µM (inactive); in the assay on HCC 2998 it was 35.6 µM (inactive); with SK-OV-3, > 100 µM (inactive); with RPMI-8226 it was 16.4 µM (inactive); in the assay on UO-31, 27.1 µM (inactive). The GI50 in the assay with SK-MEL-2 is 36.6 µM (inactive); in the assay on K562 it was 20.4 µM (inactive); with HOP-62 it was 32.8 µM (inactive); in the assay with COLO 205, 26.9 µM (inactive); with HL-60 it was 20.3 µM (inactive); with IGROV-1 it was 39.1 µM (inactive). Moreover, the GI50 in the assay on HOP-92 was 25.7 µM (inactive); with TK-10, > 100 µM (inactive); with OVCAR-4 it was 49.4 µM (inactive); in the assay on RXF 393, 31 µM (inactive).
As to `CC1CC(C)C2OC2(C)C[C@H](C)C(=O)NC(C)C(=O)N(C)[C@H](Cc2c(Br)[nH]c3ccccc23)C(=O)N[C@@H](c2ccc(O)cc2)CC(=O)O1` (stereo not given in full), the GI50 with UACC-257 is 0.418 µM (active); in the assay with NCI-H522, 0.0504 µM (active); with HCC 2998 it was 0.11 µM (active); in the assay with SK-OV-3 it was 0.433 µM (active); in the assay with RPMI-8226, 0.0355 µM (active); with UO-31, 10 µM (inactive). Besides, the GI50 in the assay with SK-MEL-2 was 0.033 µM (active); in the assay with K562, 0.703 µM (active); in the assay on HOP-62, 0.33 µM (active); with COLO 205 it was 0.0214 µM (active); in the assay with HL-60 it was 0.0723 µM (active); in the assay with IGROV-1, 0.272 µM (active). The GI50 in the assay on HOP-92 is 0.352 µM (active); in the assay with TK-10, 0.741 µM (active); in the assay with OVCAR-4, 0.22 µM (active); in the assay on RXF 393 it was 1.47 µM (inactive).
As for `CC1OC(NCCNCCNC2OC(C)C(O)C(O)C2O)C(O)C(O)C1O` (stereo not given), the GI50 in the assay with NCI/ADR-RES, in the assay with UACC-257, in the assay with NCI-H522, in the assay on RPMI-8226, in the assay with UO-31 and with SK-MEL-2 was > 100 µM (inactive) throughout. For the same compound, the GI50 with MCF7, in the assay with K562, in the assay with HOP-62, in the assay with COLO 205, with DU-145 and with HL-60 was > 100 µM (inactive) throughout. The GI50 in the assay on IGROV-1, with HOP-92, in the assay on TK-10, in the assay with OVCAR-4 and in the assay on RXF 393 was > 100 µM (inactive) in each case.
Turning to `Cc1ccc(NC(=O)CC(=O)n2nc(-c3ccccc3)c(/N=N\c3ccccc3[N+](=O)[O-])c2-c2ccccc2)cc1`, the GI50 is > 100 µM (inactive) in the assay on UACC-257; 74.8 µM (inactive) in the assay on NCI-H522; > 100 µM (inactive) in the assay with HCC 2998; 80.2 µM (inactive) in the assay on SK-OV-3; > 100 µM (inactive) in the assay with RPMI-8226; > 100 µM (inactive) in the assay with UO-31. The GI50 with SK-MEL-2 was > 100 µM (inactive); in the assay on K562, > 100 µM (inactive); in the assay with HOP-62, 82.2 µM (inactive); with COLO 205 it was > 100 µM (inactive); in the assay with HL-60, 86.5 µM (inactive); with IGROV-1, > 100 µM (inactive). The GI50 is 28.2 µM (inactive) in the assay on HOP-92, > 100 µM (inactive) in the assay on TK-10, 45.3 µM (inactive) with OVCAR-4 and 55.1 µM (inactive) in the assay with RXF 393.
In the case of `CCc1nc2ccccc2c(=O)n1/N=C(\N=N\c1ccc(Cl)cc1)c1ccccc1`, the GI50 is 13.2 µM (inactive) in the assay on UACC-257; 20.1 µM (inactive) in the assay on NCI-H522; 29.2 µM (inactive) in the assay on HCC 2998; 23.7 µM (inactive) in the assay on SK-OV-3; 30.7 µM (inactive) in the assay on RPMI-8226; 19.5 µM (inactive) in the assay on UO-31. Besides, the GI50 is 32.7 µM (inactive) in the assay with SK-MEL-2; > 10 µM (inactive) in the assay on K562; 24.3 µM (inactive) in the assay with HOP-62; 31.3 µM (inactive) in the assay with COLO 205; 42.4 µM (inactive) in the assay with HL-60; 34 µM (inactive) with IGROV-1. The GI50 in the assay on HOP-92 was 13.9 µM (inactive); in the assay with TK-10, 31 µM (inactive); in the assay with OVCAR-4 it was 23.5 µM (inactive); with RXF 393, 14.2 µM (inactive).
As for `O=C(/C=C/c1c(O)ccc2ccccc12)c1ccc2ccccc2c1`, the GI50 in the assay with UACC-257, in the assay on NCI-H522, with HCC 2998, in the assay on SK-OV-3, with RPMI-8226 and in the assay with UO-31 was > 100 µM (inactive) throughout. In addition, the GI50 in the assay on SK-MEL-2, in the assay on K562, in the assay with HOP-62, in the assay with COLO 205, in the assay on HL-60 and with IGROV-1 was > 100 µM (inactive) throughout. For the same compound, the GI50 in the assay on HOP-92, in the assay with TK-10, in the assay with OVCAR-4 and in the assay with RXF 393 was > 100 µM (inactive) each time.
